Measured values: PMC8619001, “Discovery of New Ginsenol-Like Compounds with High Antiviral Activity” (Molecules, 2021)

Tested on: A/Vladivostok/2/2009 (H1N1)
Assay: microbe, parasite or virus in culture
Type: cell-based
Settings: Influenza A virus, H1N1, MDCK, 72 h, read-out: IC50 H1N1

Question: Which IC50 does the source give for `CC(=O)NC12CC(C)(C)C3CCC1(C)CCCC32C` [Compound 1a, (1S,3aR,4R,7aS)-N-(2,2,4,7a-tetramethyloctahydro-1,4-etanoinden-3a-yl)-acetamide] here?
Answer: 380 ± 51 nM
